The record followed here is patent publication US11491089B2, “Reloadable microcapsules” (International Flavors & Fragrances Inc., priority 2016, dated 2022).

This series is described as follows: Hansen solubility parameters of the core solvents. Type of series: physicochemical. The source says:
The term “Hansen solubility parameter” refers to a solubility parameter approach proposed by Charles Hansen used to predict polymer solubility and was developed around the basis that the total energy of vaporization of a liquid consists of several individual parts. To calculate the “weighted Hansen solubility parameter” one must combine the effects of (atomic) dispersion forces, (molecular) permanent dipole-permanent dipole forces, and (molecular) hydrogen bonding (electron exchange). The “weighted Hansen solubility parameter” is calculated as (δD^2+δP^2+δH^2)^0.5, wherein δD is the Hansen dispersion value, δP is the Hansen polarizability value, and δH is the Hansen Hydrogen-bonding (“h-bonding”) value.

`CC(=O)OCC(COC(C)=O)OC(C)=O` [triacetin]: the “δD (Hansen dispersion value)” value was found to be 16.4, the “δH (Hansen h-bonding value)” value stood at 9.6 and the “δP (Hansen polar (dipole-dipole) value)” value amounted to 5.7.

Take `CCCCCCCCCCCCCC(=O)OC(C)C` [isopropyl myristate]: the “δD (Hansen dispersion value)” value was determined as 16, the “δH (Hansen h-bonding value)” value was determined as 2.7 and the “δP (Hansen polar (dipole-dipole) value)” value is recorded as 2.1.
